Results as given in US20240238358A1, “TRADITIONAL CHINESE MEDICINE COMPOSITION FOR INFECTIOUS DISEASE RECOVERY AND USE THEREOF” (CHINA RESOURCES SANJIU MEDICAL & PHARMACEUTICAL CO., LTD., priority 2021, published 2024).

Tested on: ARE luciferase activity of 293T cells
Test: ARE luciferase reporter gene activity in transfected 293T cells (dual-luciferase, anti-oxidation activity)
Format: cell-based
Conditions: tBHQ 10 μM, 6 h, n = 18, control = 1 ± 0.19, relative luciferase activity
Procedure: The 293T cells in the logarithmic growth phase were inoculated in a 96-well cell culture plate at a density of 2×10^5 cells/mL. After the growth density of the cells reached 70%-80%, the ARE and NF-kB luciferase reporter plasmids pGL4.37 and pGL4.32 (100 ng/well) and the […] luciferase reporter plasmid pGL4.75 (10 ng/well) were simultaneously transfected using the PEI (1 mg/mL) transfection reagent and then cultured for 24 h. After 24 h of culture, cells transfected with the ARE luciferase reporter plasmid pGL4.37 were added to tBHQ (10 μM) and each of the sample solutions of the traditional Chinese compositions of the present disclosure with safe concentrations, respectively, a control group was set, and the cells were cultured for 6 h; cells transfected with the NF-kB luciferase reporter plasmid pGL4.32 were added to TNF-α (10 ng/mL)-dexamethasone (10 μM) diluted with a complete medium and each of the sample solutions of the traditional Chinese compositions of the present disclosure with safe concentrations, respectively, a control group and a model group (10 ng/mL TNF-a) were set, and the cells were cultured for 6 h. The supernatant was discarded, the cells were rinsed with PBS, and after the cells were lysed, the cells were detected by a dual-luciferase detection system. Six duplicate wells were set for each experiment, and each experiment was repeated three times. […]

For `CC(C)(C)c1cc(O)ccc1O` [tBHQ, tertiary butylhydroquinone], the “ARE luciferase activity of 293T cells (x ± SD)” value was 6.82 ± 1.28.
